Source: ChEMBL document CHEMBL3132748, “Novel inhibitors of breast cancer relevant kinases Brk and HER2” (Medchemcomm, 2014)
The source made the active and inactive calls. The calls are words filed in the database; no cut-off is given here.

Columns and labels:
[1] = molecular target: T1, Protein-tyrosine kinase 6 (Homo sapiens, UniProt Q13882); experiment: Inhibition of human recombinant GST-fused Brk expressed in baculovirus Sf9 insect cells using poly(Glu,Tyr) as substrate after 60 mins by scintillation counting
Target sequence in this assay (Q13882 whole entry, the tested form may be a part): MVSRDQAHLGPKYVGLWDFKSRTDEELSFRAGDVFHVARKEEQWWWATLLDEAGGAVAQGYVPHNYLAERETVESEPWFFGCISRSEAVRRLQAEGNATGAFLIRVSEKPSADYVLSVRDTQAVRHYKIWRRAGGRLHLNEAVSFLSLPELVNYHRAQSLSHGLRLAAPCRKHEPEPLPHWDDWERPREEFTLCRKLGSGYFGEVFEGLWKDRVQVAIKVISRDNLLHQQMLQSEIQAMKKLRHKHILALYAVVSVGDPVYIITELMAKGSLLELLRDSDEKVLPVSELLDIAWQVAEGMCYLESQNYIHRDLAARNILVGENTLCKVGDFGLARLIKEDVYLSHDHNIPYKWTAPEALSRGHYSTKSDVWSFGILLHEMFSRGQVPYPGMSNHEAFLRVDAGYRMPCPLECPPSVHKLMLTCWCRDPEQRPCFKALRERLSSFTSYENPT

[2] = molecular target: Receptor tyrosine-protein kinase erbB-2 (Homo sapiens, UniProt P04626); experiment: Inhibition of human recombinant GST-fused HER2 expressed in baculovirus Sf9 insect cells using poly(Glu,Tyr) as substrate after 60 mins by scintillation counting
MDA-MB-468 = experiment: Antiproliferative activity against human MDA-MB-468 cells by SRB assay; format: functional
MCF7 = experiment: Antiproliferative activity against human MCF7 cells by SRB assay; format: functional
[3] = molecular target: Mitogen-activated protein kinase 10 (Homo sapiens) (UniProt P53779); experiment: Inhibition of JNK3 (unknown origin) using ATF2 as substrate after 60 mins by scintillation counting
[4] = molecular target: Epidermal growth factor receptor (Homo sapiens, UniProt P00533); experiment: Inhibition of EGFR (unknown origin) using poly(Glu,Tyr) as substrate after 60 mins by scintillation counting
[5] = molecular target: Serine/threonine-protein kinase PAK 1 (Homo sapiens) (UniProt Q13153); experiment: Inhibition of PAK1 (unknown origin) using tetra(LRRWSLG) as substrate after 60 mins by scintillation counting
[6] = molecular target: T1, Protein-tyrosine kinase 6; experiment: Inhibition of BRK in human T47D cells assessed as phosphorylation of STAT3 at >100 nM by Western blot analysis; format: cell-based
Target sequence in this assay (Q13882 whole entry, looked up, the tested form may be a part): as the sequence (Q13882 whole entry, the tested form may be a part) above

[7] = molecular target: Mitogen-activated protein kinase 1 (Homo sapiens) (UniProt P28482); experiment: Inhibition of ERK2 (unknown origin) using RBER-CHKtide as substrate after 60 mins by scintillation counting
[8] = molecular target: T2, Serine/threonine-protein kinase VRK1 (Homo sapiens) (UniProt Q99986); experiment: Inhibition of VRK1 (unknown origin) using RBER-CHKtide as substrate after 60 mins by scintillation counting
T2 sequence (whole entry): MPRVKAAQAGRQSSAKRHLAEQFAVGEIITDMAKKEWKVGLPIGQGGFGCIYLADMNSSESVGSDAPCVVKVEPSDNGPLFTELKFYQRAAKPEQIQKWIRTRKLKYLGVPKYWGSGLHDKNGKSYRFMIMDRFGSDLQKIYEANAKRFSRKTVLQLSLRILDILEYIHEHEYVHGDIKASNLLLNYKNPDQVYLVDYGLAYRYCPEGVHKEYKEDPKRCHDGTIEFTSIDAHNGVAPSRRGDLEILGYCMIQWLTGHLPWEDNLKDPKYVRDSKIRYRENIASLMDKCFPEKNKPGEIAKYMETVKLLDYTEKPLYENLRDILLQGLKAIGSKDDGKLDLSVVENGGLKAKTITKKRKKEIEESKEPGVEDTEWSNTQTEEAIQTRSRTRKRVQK

Aurora kinase A = molecular target: T3, Aurora kinase A (Homo sapiens, UniProt O14965); experiment: Inhibition of aurora-A (unknown origin) using tetra(LRRWSLG) as substrate after 60 mins by scintillation counting
T3 sequence (O14965 whole entry): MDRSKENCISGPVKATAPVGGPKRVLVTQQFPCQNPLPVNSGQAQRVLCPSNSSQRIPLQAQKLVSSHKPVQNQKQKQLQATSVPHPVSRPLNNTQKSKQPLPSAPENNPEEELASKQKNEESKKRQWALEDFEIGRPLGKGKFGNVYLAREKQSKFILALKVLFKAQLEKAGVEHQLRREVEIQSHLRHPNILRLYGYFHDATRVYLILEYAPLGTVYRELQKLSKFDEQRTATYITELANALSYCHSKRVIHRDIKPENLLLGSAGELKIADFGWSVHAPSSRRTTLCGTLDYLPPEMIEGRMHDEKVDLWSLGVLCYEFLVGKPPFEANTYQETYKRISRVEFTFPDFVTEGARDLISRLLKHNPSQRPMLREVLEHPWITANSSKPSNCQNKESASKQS

Aurora kinase C = molecular target: T4, Aurora kinase C (Homo sapiens, UniProt Q9UQB9); experiment: Inhibition of aurora-C (unknown origin) using tetra(LRRWSLG) as substrate after 60 mins by scintillation counting
T4 sequence (Q9UQB9 whole entry): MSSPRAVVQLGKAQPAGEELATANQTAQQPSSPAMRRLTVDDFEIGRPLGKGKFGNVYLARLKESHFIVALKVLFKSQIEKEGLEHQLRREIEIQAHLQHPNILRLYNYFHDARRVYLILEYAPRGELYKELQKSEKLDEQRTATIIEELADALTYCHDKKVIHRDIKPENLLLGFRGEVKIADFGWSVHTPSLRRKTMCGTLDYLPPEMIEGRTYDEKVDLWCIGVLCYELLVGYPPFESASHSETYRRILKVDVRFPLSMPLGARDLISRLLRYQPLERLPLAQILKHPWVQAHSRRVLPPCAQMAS

[9] = molecular target: Mitogen-activated protein kinase 8 (Homo sapiens) (UniProt P45983); experiment: Inhibition of JNK1 (unknown origin) using ATF2 as substrate after 60 mins by scintillation counting
[10] = molecular target: RAC-beta serine/threonine-protein kinase (Homo sapiens) (UniProt P31751); experiment: Inhibition of AKT2 (unknown origin)using GSK3 (14 to 27) as substrate after 60 mins by scintillation counting
[11] = molecular target: RAC-alpha serine/threonine-protein kinase (Homo sapiens) (UniProt P31749); experiment: Inhibition of AKT1 (unknown origin) using GSK3 (14 to 27) as substrate after 60 mins by scintillation counting
RAC-alpha serine/threonine-protein kinase (Homo sapiens), sequence (P31749 whole entry): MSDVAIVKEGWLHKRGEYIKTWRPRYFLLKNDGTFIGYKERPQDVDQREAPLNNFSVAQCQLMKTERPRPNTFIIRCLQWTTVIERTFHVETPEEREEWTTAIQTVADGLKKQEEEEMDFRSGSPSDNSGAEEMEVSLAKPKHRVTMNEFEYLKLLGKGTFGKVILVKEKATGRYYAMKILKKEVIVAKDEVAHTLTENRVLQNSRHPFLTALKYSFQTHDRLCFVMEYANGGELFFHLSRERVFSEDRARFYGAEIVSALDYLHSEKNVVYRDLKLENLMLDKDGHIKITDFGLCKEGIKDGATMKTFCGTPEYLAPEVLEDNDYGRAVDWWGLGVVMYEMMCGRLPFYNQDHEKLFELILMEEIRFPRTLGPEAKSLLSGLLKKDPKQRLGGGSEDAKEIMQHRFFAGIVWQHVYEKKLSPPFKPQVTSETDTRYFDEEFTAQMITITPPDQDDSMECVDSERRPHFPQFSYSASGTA

Receptor tyrosine-protein kinase erbB-2, sequence (P04626 whole entry, the tested form may be a part): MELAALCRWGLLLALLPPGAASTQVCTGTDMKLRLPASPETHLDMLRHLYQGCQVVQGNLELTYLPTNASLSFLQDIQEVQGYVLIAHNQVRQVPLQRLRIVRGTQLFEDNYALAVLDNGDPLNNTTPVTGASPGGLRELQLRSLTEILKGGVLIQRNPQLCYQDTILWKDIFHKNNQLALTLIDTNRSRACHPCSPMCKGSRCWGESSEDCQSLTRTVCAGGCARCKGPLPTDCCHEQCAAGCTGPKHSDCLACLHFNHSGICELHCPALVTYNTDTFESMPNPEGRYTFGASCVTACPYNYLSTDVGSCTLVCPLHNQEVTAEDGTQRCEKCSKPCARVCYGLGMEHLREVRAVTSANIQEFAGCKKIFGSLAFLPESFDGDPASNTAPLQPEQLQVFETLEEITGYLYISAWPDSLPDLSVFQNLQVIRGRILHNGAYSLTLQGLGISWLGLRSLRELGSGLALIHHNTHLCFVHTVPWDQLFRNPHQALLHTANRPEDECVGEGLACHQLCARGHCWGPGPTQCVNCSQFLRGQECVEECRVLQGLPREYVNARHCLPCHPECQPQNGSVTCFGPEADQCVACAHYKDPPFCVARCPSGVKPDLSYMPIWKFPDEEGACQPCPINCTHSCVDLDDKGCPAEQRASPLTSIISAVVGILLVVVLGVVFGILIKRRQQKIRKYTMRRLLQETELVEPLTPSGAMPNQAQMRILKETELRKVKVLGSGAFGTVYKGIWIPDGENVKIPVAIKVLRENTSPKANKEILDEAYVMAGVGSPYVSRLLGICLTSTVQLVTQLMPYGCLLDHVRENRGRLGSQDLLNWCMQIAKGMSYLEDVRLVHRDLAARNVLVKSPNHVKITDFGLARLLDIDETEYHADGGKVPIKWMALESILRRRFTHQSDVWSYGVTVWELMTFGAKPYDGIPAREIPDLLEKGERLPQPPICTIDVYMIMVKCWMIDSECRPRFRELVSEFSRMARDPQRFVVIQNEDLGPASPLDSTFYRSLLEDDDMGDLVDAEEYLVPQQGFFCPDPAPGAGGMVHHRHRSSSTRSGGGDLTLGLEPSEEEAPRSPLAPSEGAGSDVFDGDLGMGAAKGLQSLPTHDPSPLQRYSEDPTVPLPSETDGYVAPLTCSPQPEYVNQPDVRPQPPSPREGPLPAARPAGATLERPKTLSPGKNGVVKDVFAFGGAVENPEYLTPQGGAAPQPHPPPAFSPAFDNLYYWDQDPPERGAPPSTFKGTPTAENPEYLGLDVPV
Mitogen-activated protein kinase 10 (Homo sapiens), sequence (P53779 whole entry): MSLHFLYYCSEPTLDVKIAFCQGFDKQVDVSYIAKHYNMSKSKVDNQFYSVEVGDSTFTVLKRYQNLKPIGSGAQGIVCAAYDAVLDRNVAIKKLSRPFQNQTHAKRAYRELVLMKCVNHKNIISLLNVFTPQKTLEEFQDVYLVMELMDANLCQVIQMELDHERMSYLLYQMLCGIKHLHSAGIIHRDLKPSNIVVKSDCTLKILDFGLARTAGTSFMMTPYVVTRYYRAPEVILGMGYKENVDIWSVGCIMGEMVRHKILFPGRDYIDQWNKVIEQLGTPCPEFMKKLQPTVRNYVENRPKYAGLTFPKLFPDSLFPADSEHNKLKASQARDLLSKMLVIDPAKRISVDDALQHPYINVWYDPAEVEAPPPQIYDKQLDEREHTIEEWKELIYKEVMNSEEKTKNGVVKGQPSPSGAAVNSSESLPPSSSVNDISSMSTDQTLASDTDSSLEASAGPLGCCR
RAC-beta serine/threonine-protein kinase (Homo sapiens), sequence (P31751 whole entry): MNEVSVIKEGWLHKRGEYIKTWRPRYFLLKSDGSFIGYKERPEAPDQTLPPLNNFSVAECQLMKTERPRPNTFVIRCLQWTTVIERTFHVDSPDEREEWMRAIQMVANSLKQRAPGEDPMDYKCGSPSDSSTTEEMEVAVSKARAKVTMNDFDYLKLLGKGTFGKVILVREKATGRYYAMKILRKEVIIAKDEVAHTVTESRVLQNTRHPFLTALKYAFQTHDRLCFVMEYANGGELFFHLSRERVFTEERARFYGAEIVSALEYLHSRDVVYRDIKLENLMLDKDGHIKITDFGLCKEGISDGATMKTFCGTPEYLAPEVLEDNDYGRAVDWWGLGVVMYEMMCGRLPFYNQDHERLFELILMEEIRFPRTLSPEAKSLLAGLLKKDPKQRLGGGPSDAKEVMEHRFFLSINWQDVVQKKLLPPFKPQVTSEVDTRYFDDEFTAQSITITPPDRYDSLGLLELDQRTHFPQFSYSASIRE
Mitogen-activated protein kinase 8 (Homo sapiens), sequence (P45983 whole entry): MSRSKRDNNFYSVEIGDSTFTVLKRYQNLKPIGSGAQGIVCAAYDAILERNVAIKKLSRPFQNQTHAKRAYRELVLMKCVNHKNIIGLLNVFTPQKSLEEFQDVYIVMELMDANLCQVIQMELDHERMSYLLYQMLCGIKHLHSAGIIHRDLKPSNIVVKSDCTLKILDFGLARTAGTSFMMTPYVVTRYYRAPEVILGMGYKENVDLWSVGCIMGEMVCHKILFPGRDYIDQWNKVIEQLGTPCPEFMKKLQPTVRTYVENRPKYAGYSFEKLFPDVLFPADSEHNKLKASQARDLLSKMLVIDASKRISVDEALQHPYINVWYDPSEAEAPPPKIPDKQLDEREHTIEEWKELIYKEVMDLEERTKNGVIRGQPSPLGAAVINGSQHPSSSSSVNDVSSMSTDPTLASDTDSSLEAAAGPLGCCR
Epidermal growth factor receptor, sequence (P00533 whole entry): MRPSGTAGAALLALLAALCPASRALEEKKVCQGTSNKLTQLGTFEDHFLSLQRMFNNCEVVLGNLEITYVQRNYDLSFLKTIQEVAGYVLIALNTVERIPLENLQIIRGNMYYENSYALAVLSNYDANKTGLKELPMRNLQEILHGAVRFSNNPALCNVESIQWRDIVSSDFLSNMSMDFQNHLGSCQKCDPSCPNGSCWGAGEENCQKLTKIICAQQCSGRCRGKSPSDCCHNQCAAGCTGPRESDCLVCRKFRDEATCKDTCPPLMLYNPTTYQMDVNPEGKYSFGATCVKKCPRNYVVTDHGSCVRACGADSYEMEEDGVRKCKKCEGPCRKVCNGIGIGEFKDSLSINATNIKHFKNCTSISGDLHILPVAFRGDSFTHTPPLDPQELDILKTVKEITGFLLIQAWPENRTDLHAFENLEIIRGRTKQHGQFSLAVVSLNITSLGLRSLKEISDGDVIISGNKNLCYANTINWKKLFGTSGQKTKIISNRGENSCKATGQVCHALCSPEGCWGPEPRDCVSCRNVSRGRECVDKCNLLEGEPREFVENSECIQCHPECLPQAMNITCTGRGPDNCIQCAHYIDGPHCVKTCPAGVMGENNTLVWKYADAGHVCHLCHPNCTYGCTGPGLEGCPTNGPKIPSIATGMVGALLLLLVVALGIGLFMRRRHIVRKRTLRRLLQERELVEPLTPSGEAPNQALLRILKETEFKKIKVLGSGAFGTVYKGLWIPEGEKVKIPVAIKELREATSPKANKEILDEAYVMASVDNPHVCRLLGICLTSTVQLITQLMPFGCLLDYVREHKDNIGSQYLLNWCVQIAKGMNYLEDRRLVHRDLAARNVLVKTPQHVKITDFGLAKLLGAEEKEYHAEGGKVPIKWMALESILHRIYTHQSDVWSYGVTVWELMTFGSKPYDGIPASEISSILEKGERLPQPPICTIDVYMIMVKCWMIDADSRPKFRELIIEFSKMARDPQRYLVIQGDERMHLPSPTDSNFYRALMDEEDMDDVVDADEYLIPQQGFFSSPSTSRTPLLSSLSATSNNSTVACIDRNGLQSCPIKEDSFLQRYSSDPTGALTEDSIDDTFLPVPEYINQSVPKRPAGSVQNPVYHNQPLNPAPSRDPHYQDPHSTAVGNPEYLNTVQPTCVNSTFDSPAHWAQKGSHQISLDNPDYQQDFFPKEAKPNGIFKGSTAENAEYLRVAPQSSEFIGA

In the case of O=S(=O)(c1ccc2[nH]c3nccc(Nc4cccc(O)c4)c3c2c1)N1CCOCC1, the IC50 [1] is reported as > 1000 µM and the IC50 [2] is reported as 0.298 µM.

With CCOc1cccc(Nc2ccnc3[nH]c4ccc(S(=O)(=O)N5CCN(CCO)CC5)cc4c23)c1 the IC50 [1] was 0.479 µM and the IC50 [2] was 6.53 µM.

Molecule CC(=O)c1ccc2[nH]c3nccc(Nc4cccc(Cl)c4)c3c2c1 has an IC50 [1] of 0.013 µM and an IC50 [2] of 1.15 µM.

Molecule CCOc1cccc(Nc2ccnc3[nH]c4ccc(S(=O)(=O)N5CCOCC5)cc4c23)c1 has an IC50 [1] of 0.41 µM and an IC50 [2] of 54.8 µM.

With Cc1ccccc1Nc1ccnc2[nH]c3ccccc3c12 the IC50 [1] was > 1000 µM and the IC50 [2] was 0.978 µM.

For Clc1cccc(Nc2ccnc3[nH]c4ccccc4c23)c1, the IC50 [2] was 0.066 µM.

COc1cccc(Nc2ccnc3[nH]c4ccc(S(=O)(=O)N5CCNCC5)cc4c23)c1 was tested, and the IC50 [1] was 0.0048 µM and the IC50 [2] was 0.39 µM.

CC(=O)c1ccc2[nH]c3nccc(Nc4cccc(N)c4)c3c2c1 was tested, and the IC50 [1] was 0.0076 µM and the IC50 [2] was 1.64 µM.

COc1cccc(Nc2ccnc3[nH]c4ccc(S(=O)(=O)N5CCN(CCO)CC5)cc4c23)c1 was tested, and the IC50 [1] was 0.0092 µM and the IC50 [2] was 0.689 µM.

For CC(=O)c1ccc2[nH]c3nccc(Nc4cccc([N+](=O)[O-])c4)c3c2c1, the IC50 [1] was 0.021 µM and the IC50 [2] was 0.978 µM.

With Oc1cccc(Nc2ccnc3[nH]c4ccccc4c23)c1 the GI50 (MDA-MB-468) was 1 µM, the GI50 (MCF7) was 0.89 µM and the inhibition [3] was “inactive”. For the same molecule, the IC50 [4] was 0.27 µM, the inhibition [5] was “inactive” and the inhibition [6] was “Active”. For the same molecule, the inhibition [7] was “inactive”, the inhibition [8] was “inactive” and the IC50 (Aurora kinase A) was 0.25 µM. The IC50 [2] was 1.3 µM, the IC50 (Aurora kinase C) was 0.259 µM and the inhibition [9] was “inactive”. The inhibition [10] was “inactive” and the inhibition [11] was “inactive”.

Work on COc1cccc(Nc2ccnc3[nH]c4ccc(S(=O)(=O)N5CCOCC5)cc4c23)c1 yielded an IC50 [1] of 0.0057 µM and an IC50 [2] of 1.24 µM.

O=S(=O)(c1ccc2[nH]c3nccc(Nc4cccc(O)c4)c3c2c1)N1CCN(CCO)CC1 was tested, and the IC50 [1] was > 1000 µM and the IC50 [2] was 0.376 µM.

In the case of CC(=O)c1ccc2[nH]c3nccc(Nc4cccc(O)c4)c3c2c1, the IC50 [1] is reported as > 1000 µM and the IC50 [2] is reported as 0.013 µM.

For Clc1ccc(Nc2ccnc3[nH]c4ccccc4c23)cc1, the IC50 [1] was > 1000 µM and the IC50 [2] was 0.31 µM.

With O=S(=O)(c1ccc2[nH]c3nccc(Nc4cccc(OCc5ccccc5)c4)c3c2c1)N1CCOCC1 the IC50 [1] was 0.055 µM and the IC50 [2] was 28.3 µM.

Work on CCOc1cccc(Nc2ccnc3[nH]c4ccc(S(=O)(=O)N5CCNCC5)cc4c23)c1 yielded an IC50 [1] of 0.026 µM and an IC50 [2] of 0.576 µM.

For Oc1cccc(Nc2ccnc3[nH]c4ccc(Br)cc4c23)c1, the GI50 (MDA-MB-468) was 1.35 µM and the GI50 (MCF7) was 0.44 µM.
